{"source": "patent US7452887B2", "about": "“Quinoline- and isoquinoline-based compounds exhibiting ATP-utilizing enzyme inhibitory activity, and compositions, and uses thereof” (Amphora Discovery Corporation, priority 2004, dated 2008)", "data": [{"target": "MAPKAPK2 (Homo sapiens, UniProt P49137)", "sequence (P49137 whole entry)": "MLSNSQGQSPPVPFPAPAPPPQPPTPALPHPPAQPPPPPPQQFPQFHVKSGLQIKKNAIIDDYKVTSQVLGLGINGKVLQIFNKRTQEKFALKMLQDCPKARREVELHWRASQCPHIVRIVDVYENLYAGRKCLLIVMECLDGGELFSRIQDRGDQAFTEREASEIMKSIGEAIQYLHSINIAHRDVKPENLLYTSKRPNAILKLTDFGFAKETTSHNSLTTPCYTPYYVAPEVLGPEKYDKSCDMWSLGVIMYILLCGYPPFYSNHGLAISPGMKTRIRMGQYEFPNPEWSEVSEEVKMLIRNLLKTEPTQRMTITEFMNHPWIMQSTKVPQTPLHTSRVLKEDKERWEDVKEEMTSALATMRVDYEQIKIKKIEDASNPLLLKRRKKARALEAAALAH", "experiment": "HTS ATP-utilizing enzyme assay, off-chip mobility-shift (Caliper HTS 250)", "assay_type": "biochemical", "details": "test compound 10 μM, kinase listed = active (greater than six-sigma from the mean activity of inactive compounds)", "excerpt": "The following procedures describe the reagent and plate preparation for a HTS of an ATP-utilizing enzyme, such as a protein kinase, run in an off-chip mobility-shift assay format. The following provides an HTS protocol for running a protein kinase HTS screen on a Caliper HTS 250 microfluidics system. The following parameters are dependent on the protein kinase used and can be determined by one skilled in the art as part of a typical assay development process. For example, the peptide substrate used can be identified from the current literature, by screening a peptide library of potential protein kinase substrates, or by other applicable means accepted in the field.\nThe following table provides typical screen assay parameters appropriate for a Caliper HTS 250 microfluidics system.\nThe reagents and buffers listed in the following table are generally applicable for developing and running an HTS screen on a human protein kinase using the Caliper HTS 250 system.\nThe following reagents were prepared using the previously described buffers.\nA 2× Master Buffer solution was prepared by combining 200 mL of 1 M HEPES, pH 7.5, 2 mL of 10% Triton X-100, 20 mL of 10% BSA, and 778 mL of H2O.\nA TCB Buffer solution was prepared by combining 125 mL of 2× Master Buffer, 10 mL of 0.5 M EDTA, 6.25 mL of 4% coating reagent, 1.01 mL of 100% DMSO, and 107.74 mL H2O.\nAssays to determine the kinase inhibitory activity of compounds of the present disclosure were performed using a Caliper HTS 250 microfluidics device, Greiner U-bottom assay plates, a Multidrop for transfer of reagents, and Biomek FX (AMNCBM03) software. Initially, 2.4 μL of a 1 mM solution of a test compound in 100% DMSO was added to a well of the Greiner U-bottom plate. A single Greiner U-bottom plate having 24×16 wells could include multiple test compounds. […] Using the Biomek FX, 10 μL of 0.5 M EDTA was added by the span-8 to wells, indicated as 100% Control and 2.4 μL of 100% DMSO was added by the span-8 to wells, indicated as 0% Control. […] The total reaction volume in each well was 25 μL, and the concentration of the test compound was 10 μM. The assay plate was incubated for 2.5 hrs at 20° C. to 22° C. […] The inhibition of the ATP-utilizing enzyme, such as a particular protein kinase, was determined by measuring the ratio of the peptide substrate to phosphorylated product for each well of the assay plate using the Caliper HTS 250 system.\nThe use of six-sigma statistical limits represents a conservative method for declaring potential hits among targets. The six-sigma activity, as well as the mean population activity, can be different for each target enzyme.", "values": [{"smiles": "CC(=O)N1CCc2cc(-c3ccc4nccc(Nc5ccc(N6CCC(N(C)C)C6)cc5)c4c3)ccc21", "note": "(stereo not shown) [1-(5-(4-(4-(3-(dimethylamino)pyrrolidin-1-yl)phenylamino)quinolin-6-yl)indolin-1-yl)ethanone]", "Activity": "MAPKAPK2"}, {"smiles": "CN1CCN(c2ccc(Nc3ccnc4ccc(-c5ccccc5C(N)=O)cc34)cc2)CC1", "note": "[2-(4-(4-(4-methylpiperazin-1-yl)phenylamino)quinolin-6-yl)benzamide]", "Activity": "MAPKAPK2"}, {"smiles": "CN(C)C(=O)CN1CCN(c2ccc(Nc3ccnc4ccc(-c5ccc(C#N)cc5)cc34)cc2)CC1", "note": "[2-(4-(4-(6-(4-cyanophenyl)quinolin-4-ylamino)phenyl)piperazin-1-yl)-N,N-dimethylacetamide]", "Activity": "MAPKAPK2"}, {"smiles": "COc1ccc(-c2ccc3nccc(Nc4ccc(N5CCN(CC(=O)N(C)C)CC5)cc4)c3c2)cc1", "note": "[2-(4-(4-(6-(4-methoxyphenyl)quinolin-4-ylamino)phenyl)piperazin-1-yl)-N,N-dimethylacetamide]", "Activity": "MAPKAPK2"}, {"smiles": "COc1ccc(-c2ccc3nccc(Nc4ccc(N5CCN(CCO)CC5)cc4)c3c2)cc1", "note": "[2-(4-(4-(6-(4-methoxyphenyl)quinolin-4-ylamino)phenyl)piperazin-1-yl)ethanol]", "Activity": "MAPKAPK2"}, {"smiles": "OCCN1CCN(c2ccc(Nc3ccnc4ccc(-c5ccccc5)cc34)cc2)CC1", "note": "[2-(4-(4-(6-phenylquinolin-4-ylamino)phenyl)piperazin-1-yl)ethanol]", "Activity": "MAPKAPK2"}, {"smiles": "CN1CCN(c2ccc(Nc3ccnc4ccc(-c5ccc(CCC(=O)O)cc5)cc34)cc2)CC1", "note": "[3-(4-(4-(4-(4-methylpiperazin-1-yl)phenylamino)quinolin-6-yl)phenyl)propanoic acid]", "Activity": "MAPKAPK2"}, {"smiles": "COc1ccc(-c2ccc3nccc(Nc4ccc(N5CCN(CCC#N)CC5)cc4)c3c2)cc1", "note": "[3-(4-(4-(6-(4-methoxyphenyl)quinolin-4-ylamino)phenyl)piperazin-1-yl)propanenitrile]", "Activity": "MAPKAPK2"}, {"smiles": "CN1CCC(c2ccc(Nc3ccnc4ccc(-c5ccc(C#N)cc5)cc34)cc2)CC1", "note": "[4-(4-(4-(1-methylpiperidin-4-yl)phenylamino)quinolin-6-yl)benzonitrile]", "Activity": "MAPKAPK2"}, {"smiles": "CN(C)CC1CCCN1c1ccc(Nc2ccnc3ccc(-c4ccc(C#N)cc4)cc23)cc1", "note": "(stereo not shown) [4-(4-(4-(2-((dimethylamino)methyl)pyrrolidin-1-yl)phenylamino)quinolin-6-yl)benzonitrile]", "Activity": "MAPKAPK2"}, {"smiles": "CN(C)CC1CCCN(c2ccc(Nc3ccnc4ccc(-c5ccc(C#N)cc5)cc34)cc2)C1", "note": "(stereo not shown) [4-(4-(4-(3-((dimethylamino)methyl)piperidin-1-yl)phenylamino)quinolin-6-yl)benzonitrile]", "Activity": "MAPKAPK2"}, {"smiles": "CN(Cc1ccccc1)C1CCN(c2ccc(Nc3ccnc4ccc(-c5ccc(C#N)cc5)cc34)cc2)C1", "note": "(stereo not shown) [4-(4-(4-(3-(benzyl(methyl)amino)pyrrolidin-1-yl)phenylamino)quinolin-6-yl)benzonitrile]", "Activity": "MAPKAPK2"}, {"smiles": "CCN(CC)C1CCN(c2ccc(Nc3ccnc4ccc(-c5ccc(C#N)cc5)cc34)cc2)C1", "note": "(stereo not shown) [4-(4-(4-(3-(diethylamino)pyrrolidin-1-yl)phenylamino)quinolin-6-yl)benzonitrile]", "Activity": "MAPKAPK2"}, {"smiles": "CN(C)C1CCCN(c2ccc(Nc3ccnc4ccc(-c5ccc(C#N)cc5)cc34)cc2)C1", "note": "(stereo not shown) [4-(4-(4-(3-(dimethylamino)piperidin-1-yl)phenylamino)quinolin-6-yl)benzonitrile]", "Activity": "MAPKAPK2"}, {"smiles": "CN(C)C1CCN(c2ccc(Nc3ccnc4ccc(-c5ccc(C#N)c(F)c5)cc34)cc2)C1", "note": "(stereo not shown) [4-(4-(4-(3-(dimethylamino)pyrrolidin-1-yl)phenylamino)quinolin-6-yl)-2-fluorobenzonitrile]", "Activity": "MAPKAPK2"}, {"smiles": "Cc1cc(-c2ccc3nccc(Nc4ccc(N5CCC(N(C)C)C5)cc4)c3c2)ccc1C#N", "note": "(stereo not shown) [4-(4-(4-(3-(dimethylamino)pyrrolidin-1-yl)phenylamino)quinolin-6-yl)-2-methylbenzonitrile]", "Activity": "MAPKAPK2"}, {"smiles": "CN(CCC(F)(F)F)C1CCN(c2ccc(Nc3ccnc4ccc(-c5ccc(C#N)cc5)cc34)cc2)C1", "note": "(stereo not shown) [4-(4-(4-(3-(methyl(3,3,3-trifluoropropyl)amino)pyrrolidin-1-yl)phenylamino)quinolin-6-yl)benzonitrile]", "Activity": "MAPKAPK2"}, {"smiles": "N#Cc1ccc(-c2ccc3nccc(Nc4ccc(N5CCN(CCO)CC5)cc4)c3c2)cc1", "note": "[4-(4-(4-(4-(2-hydroxyethyl)piperazin-1-yl)phenylamino)quinolin-6-yl)benzonitrile]", "Activity": "MAPKAPK2"}, {"smiles": "COCCN1CCN(c2ccc(Nc3ccnc4ccc(-c5ccc(C#N)cc5)cc34)cc2)CC1", "note": "[4-(4-(4-(4-(2-methoxyethyl)piperazin-1-yl)phenylamino)quinolin-6-yl)benzonitrile]", "Activity": "MAPKAPK2"}, {"smiles": "N#Cc1ccc(-c2ccc3nccc(Nc4ccc(N5CCN(CCCO)CC5)cc4)c3c2)cc1", "note": "[4-(4-(4-(4-(3-hydroxypropyl)piperazin-1-yl)phenylamino)quinolin-6-yl)benzonitrile]", "Activity": "MAPKAPK2"}, {"smiles": "CN(C)CC1CCN(c2ccc(Nc3ccnc4ccc(-c5ccc(C#N)cc5)cc34)cc2)CC1", "note": "[4-(4-(4-(4-((dimethylamino)methyl)piperidin-1-yl)phenylamino)quinolin-6-yl)benzonitrile]", "Activity": "MAPKAPK2"}, {"smiles": "CCC(CC)N1CCN(c2ccc(Nc3ccnc4ccc(-c5ccc(C#N)cc5)cc34)cc2)CC1", "note": "[4-(4-(4-(4-(pentan-3-yl)piperazin-1-yl)phenylamino)quinolin-6-yl)benzonitrile]", "Activity": "MAPKAPK2"}, {"smiles": "C=CCN1CCN(c2ccc(Nc3ccnc4ccc(-c5ccc(C#N)cc5)cc34)cc2)CC1", "note": "[4-(4-(4-(4-allylpiperazin-1-yl)phenylamino)quinolin-6-yl)benzonitrile]", "Activity": "MAPKAPK2"}, {"smiles": "CCCCN1CCN(c2ccc(Nc3ccnc4ccc(-c5ccc(C#N)cc5)cc34)cc2)CC1", "note": "[4-(4-(4-(4-butylpiperazin-1-yl)phenylamino)quinolin-6-yl)benzonitrile]", "Activity": "MAPKAPK2"}, {"smiles": "N#Cc1ccc(-c2ccc3nccc(Nc4ccc(N5CCN(C6CCCCC6)CC5)cc4)c3c2)cc1", "note": "[4-(4-(4-(4-cyclohexylpiperazin-1-yl)phenylamino)quinolin-6-yl)benzonitrile]", "Activity": "MAPKAPK2"}, {"smiles": "N#Cc1ccc(-c2ccc3nccc(Nc4ccc(N5CCN(C6CCCC6)CC5)cc4)c3c2)cc1", "note": "[4-(4-(4-(4-cyclopentylpiperazin-1-yl)phenylamino)quinolin-6-yl)benzonitrile]", "Activity": "MAPKAPK2"}, {"smiles": "CC(C)N1CCN(c2ccc(Nc3ccnc4ccc(-c5ccc(C#N)cc5)cc34)cc2)CC1", "note": "[4-(4-(4-(4-isopropylpiperazin-1-yl)phenylamino)quinolin-6-yl)benzonitrile]", "Activity": "MAPKAPK2"}, {"smiles": "CN1CCN(c2ccc(Oc3ccnc4ccc(-c5ccc(C#N)cc5)cc34)cc2)CC1", "note": "[4-(4-(4-(4-methylpiperazin-1-yl)phenoxy)quinolin-6-yl)benzonitrile]", "Activity": "MAPKAPK2"}, {"smiles": "CC1CCN(c2ccc(Nc3ccnc4ccc(-c5ccc(C#N)cc5)cc34)cc2)CC1", "note": "[4-(4-(4-(4-methylpiperidin-1-yl)phenylamino)quinolin-6-yl)benzonitrile]", "Activity": "MAPKAPK2"}, {"smiles": "CN1CCC(N(C)c2ccc(Nc3ccnc4ccc(-c5ccc(C#N)cc5)cc34)cc2)C1", "note": "(stereo not shown) [4-(4-(4-(methyl(1-methylpyrrolidin-3-yl)amino)phenylamino)quinolin-6-yl)benzonitrile]", "Activity": "MAPKAPK2"}, {"smiles": "CN1CCN(c2ccc(Nc3ccnc4ccc(-c5ccc(C#N)cc5)cc34)nn2)CC1", "note": "[4-(4-(6-(4-methylpiperazin-1-yl)pyridazin-3-ylamino)quinolin-6-yl)benzonitrile]", "Activity": "MAPKAPK2"}, {"smiles": "CN1CCN(c2ccc(Nc3ccnc4ccc(-c5ccc(C#N)cc5)cc34)cn2)CC1", "note": "[4-(4-(6-(4-methylpiperazin-1-yl)pyridin-3-ylamino)quinolin-6-yl)benzonitrile]", "Activity": "MAPKAPK2"}, {"smiles": "CN(C)C1CCN(c2ccc(Nc3ccnc4ccc(-c5ccc6c(c5)CCC6=O)cc34)cc2)C1", "note": "(stereo not shown) [5-(4-(4-(3-(dimethylamino)pyrrolidin-1-yl)phenylamino)quinolin-6-yl)-2,3-dihydroinden-1-one]", "Activity": "MAPKAPK2"}, {"smiles": "CN(C)C1CCN(c2ccc(Nc3ccnc4ccc(-c5cncc(C(=O)O)c5)cc34)cc2)C1", "note": "(stereo not shown) [5-(4-(4-(3-(dimethylamino)pyrrolidin-1-yl)phenylamino)quinolin-6-yl)nicotinic acid]", "Activity": "MAPKAPK2"}]}]}
